Assay results published in ChEMBL document CHEMBL3525998, “Metabolism of saikosaponin a in rats: diverse oxidations on the aglycone moiety in liver and intestine in addition to hydrolysis of glycosidic bonds” (Drug Metab Dispos, 2013).

Assays:
Assay type in all cases: ADME, organism-based
[1] = Drug excretion in Sprague-Dawley rat bile at 50 mg/kg, po administered through gavage by LC-DAD-IT-TOF-MS analysis; parameters: dose 50 mg/kg, route oral; conditions: in vivo
[2] = Drug excretion in Sprague-Dawley rat urine at 50 mg/kg, po administered through gavage by LC-DAD-IT-TOF-MS analysis; parameters: dose 50 mg/kg, route oral; conditions: in vivo
Rattus norvegicus = species: Rattus norvegicus; test: Drug metabolism in Sprague-Dawley rat assessed as retention time by LC-DAD-IT-TOF-MS analysis
[3] = Drug recovery in po dosed rat excreted feces measured over 0 to 24 hrs after drug administration by HPLC analysis relative to starting drug dose; conditions: faeces, read-out: Drug recovery
[4] = Drug excretion in Sprague-Dawley rat feces assessed as metabolite 3-keto-saikogenin f level at 15 mg/kg, iv by LC-DAD-IT-TOF-MS analysis; parameters: dose 15 mg/kg, route intravenous; conditions: in vivo
[5] = Drug excretion in Sprague-Dawley rat urine assessed as metabolite delta1-saikogenin f level at 15 mg/kg, iv by LC-DAD-IT-TOF-MS analysis; parameters: dose 15 mg/kg, route intravenous; conditions: in vivo
[6] = Drug excretion in Sprague-Dawley rat feces assessed as metabolite delta1-saikogenin f level at 15 mg/kg, iv by LC-DAD-IT-TOF-MS analysis; parameters: dose 15 mg/kg, route intravenous; conditions: in vivo
Plasma [7] = test: Drug metabolism in Sprague-Dawley rat plasma assessed as metabolite saikogenin f-27-oic acid formation at 15 mg/kg, iv by LC-DAD-IT-TOF-MS analysis; parameters: dose 15 mg/kg, route intravenous; conditions: in vivo
[8] = Drug excretion in Sprague-Dawley rat bile assessed as metabolite saikogenin f-27-oic acid level at 15 mg/kg, iv by LC-DAD-IT-TOF-MS analysis; parameters: dose 15 mg/kg, route intravenous; conditions: in vivo
[9] = Drug excretion in Sprague-Dawley rat urine assessed as metabolite saikogenin f-27-oic acid level at 15 mg/kg, iv by LC-DAD-IT-TOF-MS analysis; parameters: dose 15 mg/kg, route intravenous; conditions: in vivo
[10] = Drug excretion in Sprague-Dawley rat feces assessed as metabolite saikogenin f-27-oic acid level at 15 mg/kg, iv by LC-DAD-IT-TOF-MS analysis; parameters: dose 15 mg/kg, route intravenous; conditions: in vivo
[11] = Drug excretion in Sprague-Dawley rat feces at 50 mg/kg, po administered through gavage by LC-DAD-IT-TOF-MS analysis; parameters: dose 50 mg/kg, route oral; conditions: in vivo
Plasma [12] = test: Drug metabolism in Sprague-Dawley rat plasma assessed as metabolite hydroxysaikosaponin a formation at 50 mg/kg, po administered through gavage by LC-DAD-IT-TOF-MS analysis; parameters: dose 50 mg/kg, route oral; conditions: in vivo
[13] = Drug excretion in Sprague-Dawley rat urine assessed as metabolite hydroxysaikosaponin a level at 50 mg/kg, po administered through gavage by LC-DAD-IT-TOF-MS analysis; parameters: dose 50 mg/kg, route oral; conditions: in vivo
Plasma [14] = test: Drug metabolism in Sprague-Dawley rat plasma assessed as metabolite prosaikogenin f formation at 50 mg/kg, po administered through gavage by LC-DAD-IT-TOF-MS analysis; parameters: dose 50 mg/kg, route oral; conditions: in vivo
[15] = Drug excretion in Sprague-Dawley rat bile assessed as metabolite prosaikogenin f level at 50 mg/kg, po administered through gavage by LC-DAD-IT-TOF-MS analysis; parameters: dose 50 mg/kg, route oral; conditions: in vivo
[16] = Drug excretion in Sprague-Dawley rat feces assessed as metabolite prosaikogenin f level at 50 mg/kg, po administered through gavage by LC-DAD-IT-TOF-MS analysis; parameters: dose 50 mg/kg, route oral; conditions: in vivo
Plasma [17] = test: Drug metabolism in Sprague-Dawley rat plasma assessed as metabolite saikogenin f formation at 50 mg/kg, po administered through gavage by LC-DAD-IT-TOF-MS analysis; parameters: dose 50 mg/kg, route oral; conditions: in vivo
[18] = Drug excretion in Sprague-Dawley rat feces assessed as metabolite saikogenin f level at 50 mg/kg, po administered through gavage by LC-DAD-IT-TOF-MS analysis; parameters: dose 50 mg/kg, route oral; conditions: in vivo
[19] = Drug excretion in Sprague-Dawley rat bile assessed as metabolite 3-keto-saikogenin f level at 50 mg/kg, po administered through gavage by LC-DAD-IT-TOF-MS analysis; parameters: dose 50 mg/kg, route oral; conditions: in vivo
[20] = Drug excretion in Sprague-Dawley rat bile assessed as metabolite delta1-saikogenin f level at 50 mg/kg, po administered through gavage by LC-DAD-IT-TOF-MS analysis; parameters: dose 50 mg/kg, route oral; conditions: in vivo
[21] = Drug excretion in Sprague-Dawley rat urine assessed as metabolite delta1-saikogenin f level at 50 mg/kg, po administered through gavage by LC-DAD-IT-TOF-MS analysis; parameters: dose 50 mg/kg, route oral; conditions: in vivo
[22] = Drug excretion in Sprague-Dawley rat feces assessed as metabolite delta1-saikogenin f level at 50 mg/kg, po administered through gavage by LC-DAD-IT-TOF-MS analysis; parameters: dose 50 mg/kg, route oral; conditions: in vivo
[23] = Drug excretion in Sprague-Dawley rat bile assessed as metabolite saikogenin f-27-oic acid level at 50 mg/kg, po administered through gavage by LC-DAD-IT-TOF-MS analysis; parameters: dose 50 mg/kg, route oral; conditions: in vivo
[24] = Drug excretion in Sprague-Dawley rat urine assessed as metabolite saikogenin f-27-oic acid level at 50 mg/kg, po administered through gavage by LC-DAD-IT-TOF-MS analysis; parameters: dose 50 mg/kg, route oral; conditions: in vivo
[25] = Drug excretion in Sprague-Dawley rat feces assessed as metabolite saikogenin f-27-oic acid level at 50 mg/kg, po administered through gavage by LC-DAD-IT-TOF-MS analysis; parameters: dose 50 mg/kg, route oral; conditions: in vivo
[26] = Drug excretion in Sprague-Dawley rat bile at 15 mg/kg, iv by LC-DAD-IT-TOF-MS analysis; parameters: dose 15 mg/kg, route intravenous; conditions: in vivo
[27] = Drug excretion in Sprague-Dawley rat urine at 15 mg/kg, iv by LC-DAD-IT-TOF-MS analysis; parameters: dose 15 mg/kg, route intravenous; conditions: in vivo
[28] = Drug excretion in Sprague-Dawley rat feces at 15 mg/kg, iv by LC-DAD-IT-TOF-MS analysis; parameters: dose 15 mg/kg, route intravenous; conditions: in vivo
[29] = Drug excretion in Sprague-Dawley rat urine assessed as metabolite hydroxysaikosaponin a level at 15 mg/kg, iv by LC-DAD-IT-TOF-MS analysis; parameters: dose 15 mg/kg, route intravenous; conditions: in vivo
[30] = Drug excretion in Sprague-Dawley rat feces assessed as metabolite hydroxysaikosaponin a level at 15 mg/kg, iv by LC-DAD-IT-TOF-MS analysis; parameters: dose 15 mg/kg, route intravenous; conditions: in vivo
Plasma [31] = test: Drug metabolism in Sprague-Dawley rat plasma assessed as metabolite prosaikogenin f formation at 15 mg/kg, iv by LC-DAD-IT-TOF-MS analysis; parameters: dose 15 mg/kg, route intravenous; conditions: in vivo
[32] = Drug excretion in Sprague-Dawley rat bile assessed as metabolite prosaikogenin f level at 15 mg/kg, iv by LC-DAD-IT-TOF-MS analysis; parameters: dose 15 mg/kg, route intravenous; conditions: in vivo
Plasma [33] = test: Drug metabolism in Sprague-Dawley rat plasma assessed as metabolite saikogenin f formation at 15 mg/kg, iv by LC-DAD-IT-TOF-MS analysis; parameters: dose 15 mg/kg, route intravenous; conditions: in vivo
[34] = Drug excretion in Sprague-Dawley rat bile assessed as metabolite saikogenin f level at 15 mg/kg, iv by LC-DAD-IT-TOF-MS analysis; parameters: dose 15 mg/kg, route intravenous; conditions: in vivo
[35] = Drug excretion in Sprague-Dawley rat feces assessed as metabolite saikogenin f level at 15 mg/kg, iv by LC-DAD-IT-TOF-MS analysis; parameters: dose 15 mg/kg, route intravenous; conditions: in vivo
Plasma [36] = test: Drug metabolism in Sprague-Dawley rat plasma assessed as metabolite 3-keto-saikogenin f formation at 15 mg/kg, iv by LC-DAD-IT-TOF-MS analysis; parameters: dose 15 mg/kg, route intravenous; conditions: in vivo
[37] = Drug excretion in Sprague-Dawley rat urine assessed as metabolite 3-keto-saikogenin f level at 15 mg/kg, iv by LC-DAD-IT-TOF-MS analysis; parameters: dose 15 mg/kg, route intravenous; conditions: in vivo

Drug excretion [1]: metabolite_detected
Drug excretion [2]: metabolite_detected
Retention_time (Rattus norvegicus): 39.9 min
dose excreted [3]: > 50%
Drug excretion [4]: metabolite_not_detected
Drug excretion [5]: metabolite_not_detected
Drug excretion [6]: metabolite_not_detected
Drug metabolism (Plasma [7]): metabolite_not_detected
Drug excretion [8]: metabolite_not_detected
Drug excretion [9]: metabolite_not_detected
Drug excretion [10]: metabolite_detected
Drug excretion [11]: metabolite_detected
Drug metabolism (Plasma [12]): metabolite_not_detected
Drug excretion [13]: metabolite_not_detected
Drug metabolism (Plasma [14]): metabolite_detected
Drug excretion [15]: metabolite_detected
Drug excretion [16]: metabolite_detected
Drug metabolism (Plasma [17]): metabolite_not_detected
Drug excretion [18]: metabolite_detected
Drug excretion [19]: metabolite_not_detected
Drug excretion [20]: metabolite_not_detected
Drug excretion [21]: metabolite_detected
Drug excretion [22]: metabolite_detected
Drug excretion [23]: metabolite_not_detected
Drug excretion [24]: metabolite_detected
Drug excretion [25]: metabolite_detected
Drug excretion [26]: metabolite_detected
Drug excretion [27]: metabolite_detected
Drug excretion [28]: metabolite_not_detected
Drug excretion [29]: metabolite_not_detected
Drug excretion [30]: metabolite_not_detected
Drug metabolism (Plasma [31]): metabolite_detected
Drug excretion [32]: metabolite_detected
Drug metabolism (Plasma [33]): metabolite_not_detected
Drug excretion [34]: metabolite_not_detected
Drug excretion [35]: metabolite_detected
Drug metabolism (Plasma [36]): metabolite_not_detected
Drug excretion [37]: metabolite_not_detected
SMILES: C[C@H]1O[C@@H](O[C@H]2CC[C@@]3(C)[C@@H](CC[C@]4(C)[C@@H]3C=C[C@]35OC[C@@]6(CCC(C)(C)C[C@H]63)[C@@H](O)C[C@]54C)[C@]2(C)CO)[C@H](O)[C@@H](O[C@@H]2O[C@H](CO)[C@@H](O)[C@H](O)[C@H]2O)[C@H]1O [SAIKOSAPONIN A]
